Converted amounts (≈) assume the structure as drawn.
Key:
Klebsiella pneumoniae [1] = experiment: Antimicrobial activity against Klebsiella pneumoniae ATCC 13883 assessed as inhibition of microbial growth incubated for 24 hrs by broth-microdilution assay; format: functional
Pseudomonas aeruginosa [2] = experiment: Antimicrobial activity against Pseudomonas aeruginosa ATCC 27853 assessed as inhibition of microbial growth incubated for 24 hrs by broth-microdilution assay; format: functional
Pseudomonas aeruginosa [3] = experiment: Antimicrobial activity against Pseudomonas aeruginosa PAO1 assessed as inhibition of microbial growth incubated for 24 hrs by broth-microdilution assay; format: functional
Klebsiella pneumoniae [4] = experiment: Antimicrobial activity against Klebsiella pneumoniae ATCC BAA1705 assessed as inhibition of microbial growth incubated for 24 hrs by broth-microdilution assay; format: functional
[5] = Acute toxicity in zebrafish embryo assessed as mortality rate at 8 microg/ml preincubated with compound for 24 hrs and measured after 48 to 72 hrs post fertilization; set-up: species or system Danio rerio; conditions: in vivo, at 8 µg/mL
[6] = Acute toxicity in zebrafish embryo assessed as mortality rate at 32 microg/ml preincubated with compound for 24 hrs and measured after 96 hrs post fertilization; set-up: species or system Danio rerio; conditions: in vivo, at 32 µg/mL
[7] = Acute toxicity in zebrafish embryo assessed as mortality rate at 8 microg/ml preincubated with compound for 24 hrs and measured after 96 hrs post fertilization; set-up: species or system Danio rerio; conditions: in vivo, at 8 µg/mL
Candida albicans [8] = experiment: Synergistic antifungal activity against Candida albicans ATCC 10231 assessed as Voriconazole MIC incubated for 48 hrs by CLSI based analysis; format: functional; conditions: read-out: MIC100
Staphylococcus aureus [9] = experiment: Antimicrobial activity against Staphylococcus aureus ATCC 43300 assessed as inhibition of microbial growth incubated for 24 hrs by broth-microdilution assay; format: functional; conditions: Staphylococcus aureus, ATCC 43300, read-out: MIC100
Pseudomonas aeruginosa [10] = experiment: Antimicrobial activity against Pseudomonas aeruginosa PAO1 assessed as inhibition of microbial growth at 128 microg/ml incubated for 24 hrs by broth-microdilution assay relative to control; format: functional
[11] = Acute toxicity in zebrafish embryo assessed as mortality rate at 16 microg/ml preincubated with compound for 24 hrs and measured after 24 hrs post fertilization; set-up: species or system Danio rerio; conditions: in vivo, at 16 µg/mL
[12] = Acute toxicity in zebrafish embryo assessed as mortality rate at 4 microg/ml preincubated with compound for 24 hrs and measured after 24 hrs post fertilization; set-up: species or system Danio rerio; conditions: in vivo, at 4 µg/mL
Klebsiella pneumoniae [13] = experiment: Antimicrobial activity against Carbapenem-resistant Klebsiella pneumoniae ATCC BAA1705 assessed as inhibition of microbial growth incubated for 24 hrs by broth-microdilution assay; format: functional
Staphylococcus aureus [14] = experiment: Antimicrobial activity against methicillin resistant Staphylococcus aureus 43300 assessed as inhibition of microbial growth incubated for 24 hrs by broth-microdilution assay; format: functional; conditions: read-out: MIC
Candida albicans [15] = experiment: Antifungal activity against Candida albicans ATCC 90028 assessed as reduction in fungal growth incubated for 48 hrs by CLSI based analysis; format: functional; conditions: read-out: MIC
[16] = Acute toxicity in zebrafish embryo assessed as mortality rate at 16 microg/ml preincubated with compound for 24 hrs and measured after 96 hrs post fertilization; set-up: species or system Danio rerio; conditions: in vivo, at 16 µg/mL
Klebsiella pneumoniae [17] = experiment: Synergistic antimicrobial activity against Klebsiella pneumoniae ATCC BAA1705 assessed as Imipenem MIC incubated for 24 hrs by checkerboard assay; format: functional; conditions: read-out: MIC100
Staphylococcus aureus [18] = experiment: Antimicrobial activity against Staphylococcus aureus ATCC 29213 assessed as inhibition of microbial growth incubated for 24 hrs by broth-microdilution assay; format: functional; conditions: Staphylococcus aureus, ATCC 29213, read-out: MIC100
Klebsiella pneumoniae [19] = experiment: Synergistic antimicrobial activity against Klebsiella pneumoniae ATCC BAA1705 assessed as fractional inhibitory concentration index incubated for 24 hrs in presence of Imipenem by checkerboard assay; format: functional
Staphylococcus aureus [20] = experiment: Synergistic antimicrobial activity against methicillin resistant Staphylococcus aureus 43300 assessed as fractional inhibitory concentration index incubated for 24 hrs in presence of Oxacillin by checkerboard assay; format: functional
[21] = system: Staphylococcus epidermidis; experiment: Antimicrobial activity against Staphylococcus epidermidis ATCC 35984 assessed as inhibition of microbial growth incubated for 24 hrs by broth-microdilution assay; format: functional; conditions: Staphylococcus epidermidis, ATCC 35984, read-out: MIC
Candida albicans [22] = experiment: Synergistic antifungal activity against Candida albicans ATCC 10231 assessed as reduction in fungal growth incubated for 48 hrs in presence of Voriconazole by CLSI based analysis; format: functional; conditions: read-out: MIC100
[23] = system: Staphylococcus epidermidis; experiment: Antimicrobial activity against Staphylococcus epidermidis ATCC 12228 assessed as inhibition of microbial growth incubated for 24 hrs by broth-microdilution assay; format: functional; conditions: Staphylococcus epidermidis, ATCC 12228, read-out: MIC
[24] = Acute toxicity in zebrafish embryo preincubated with compound for 24 hrs and measured after 96 hrs post fertilization; set-up: species or system Danio rerio; conditions: in vivo
Klebsiella pneumoniae [25] = experiment: Antimicrobial activity against Carbapenem -resistant Klebsiella pneumoniae ATCC 13883 assessed as inhibition of microbial growth incubated for 24 hrs by broth-microdilution assay; format: functional
Pseudomonas aeruginosa [26] = experiment: Antimicrobial activity against Pseudomonas aeruginosa 27853 assessed as inhibition of microbial growth at 128 microg/ml incubated for 24 hrs by broth-microdilution assay relative to control; format: functional
[27] = Acute toxicity in zebrafish embryo assessed as mortality rate at 4 microg/ml preincubated with compound for 24 hrs and measured after 96 hrs post fertilization; set-up: species or system Danio rerio; conditions: in vivo, at 4 µg/mL
Staphylococcus aureus [28] = experiment: Synergistic antimicrobial activity against methicillin resistant Staphylococcus aureus 43300 assessed as Oxacillin MIC incubated for 24 hrs by checkerboard assay; format: functional; conditions: read-out: MIC100
[29] = Acute toxicity in zebrafish embryo preincubated with compound for 24 hrs and measured after 48 to 72 hrs post fertilization; set-up: species or system Danio rerio; conditions: in vivo
Staphylococcus aureus [30] = experiment: Synergistic antimicrobial activity against methicillin resistant Staphylococcus aureus 43300 assessed as inhibition of microbial growth incubated for 24 hrs in presence of Oxacillin by checkerboard assay; format: functional; conditions: read-out: MIC100
[31] = Acute toxicity in zebrafish embryo assessed as mortality rate at 8 microg/ml preincubated with compound for 24 hrs and measured after 24 hrs post fertilization; set-up: species or system Danio rerio; conditions: in vivo, at 8 µg/mL
Klebsiella pneumoniae [32] = experiment: Synergistic antimicrobial activity against Klebsiella pneumoniae ATCC BAA1705 assessed as inhibition of microbial growth incubated for 24 hrs in presence of Imipenem by checkerboard assay; format: functional; conditions: read-out: MIC100
[33] = Acute toxicity in zebrafish embryo assessed as mortality rate at 4 microg/ml preincubated with compound for 24 hrs and measured after 48 to 72 hrs post fertilization; set-up: species or system Danio rerio; conditions: in vivo, at 4 µg/mL
[34] = Acute toxicity in zebrafish embryo assessed as mortality rate at 16 microg/ml preincubated with compound for 24 hrs and measured after 48 to 72 hrs post fertilization; set-up: species or system Danio rerio; conditions: in vivo, at 16 µg/mL
Candida albicans [35] = experiment: Antifungal activity against Candida albicans ATCC 10231 assessed as reduction in fungal growth incubated for 48 hrs by CLSI based analysis; format: functional; conditions: read-out: MIC100
[36] = Acute toxicity in zebrafish embryo assessed as mortality rate at 32 microg/ml preincubated with compound for 24 hrs and measured after 24 hrs post fertilization; set-up: species or system Danio rerio; conditions: in vivo, at 32 µg/mL
[37] = Acute toxicity in zebrafish embryo preincubated with compound for 24 hrs and measured after 24 hrs post fertilization; set-up: species or system Danio rerio; conditions: in vivo
Candida albicans [38] = experiment: Synergistic antifungal activity against Candida albicans ATCC 10231 assessed as fractional inhibitory concentration index incubated for 48 hrs in presence of Voriconazole by CLSI based analysis; format: functional
[39] = Acute toxicity in zebrafish embryo assessed as mortality rate at 2 microg/ml preincubated with compound for 24 hrs and measured after 96 hrs post fertilization; set-up: species or system Danio rerio; conditions: in vivo, at 2 µg/mL
[40] = Acute toxicity in zebrafish embryo assessed as mortality rate at 0.7 microg/ml preincubated with compound for 24 hrs and measured after 96 hrs post fertilization; set-up: species or system Danio rerio; conditions: in vivo, at 0.7 µg/mL
Staphylococcus aureus [41] = experiment: Antimicrobial activity against Staphylococcus aureus 29213 assessed as inhibition of microbial growth incubated for 24 hrs by broth-microdilution assay; format: functional

NC[C@H]1O[C@H](O[C@H]2[C@H](O)[C@@H](O[C@H]3O[C@H](CO)[C@@H](O)[C@H](N)[C@H]3O)[C@H](N)C[C@@H]2N)[C@H](N)C[C@@H]1O [TOBRAMYCIN]
MIC (Klebsiella pneumoniae [1]; read-out: MIC100): 2 µg/mL
MIC (Pseudomonas aeruginosa [2]; Pseudomonas aeruginosa, ATCC 27853, read-out: MIC100): 2 µg/mL
MIC (Pseudomonas aeruginosa [3]; Pseudomonas aeruginosa, PAO1, read-out: MIC100): 2 µg/mL

C[C@@H](O)[C@H]1C(=O)N2C(C(=O)O)=C(SCCNC=N)C[C@H]12 [IMIPENEM ANHYDROUS]
MIC (Klebsiella pneumoniae [4]; read-out: MIC100): ≥ 4 µg/mL

CC1(C)CCC[C@]2(C)[C@H]3CC[C@](C)(CC(=O)NC(=N)N)O[C@]3(C)CC[C@@H]12
mortality at 24 h, 8 microg/ml [5]: 35%
mortality at 96 h, 32 microg/ml [6]: 100%
mortality at 96 h, 8 microg/ml [7]: 95%
MIC (Candida albicans [8]): 0.125 µg/mL
MIC (Staphylococcus aureus [9]): 8 µg/mL
inhibition at 128 µg/mL (Pseudomonas aeruginosa [10]): 75%
mortality at 24 h, 16 microg/ml [11]: 75%
mortality at 24 h, 4 microg/ml [12]: 0%
MIC (Klebsiella pneumoniae [13]): 32 µg/mL
MIC (Staphylococcus aureus [14]): 4 µg/mL
MIC (Candida albicans [15]): 16 µg/mL (≈ 44 µM)
mortality at 96 h, 16 microg/ml [16]: 100%
MIC (Klebsiella pneumoniae [1]; read-out: MIC): 16 µg/mL
MIC (Klebsiella pneumoniae [17]): 2 µg/mL
MIC (Staphylococcus aureus [18]): 8 µg/mL
fractional inhibitory concentration index (FICI) (Klebsiella pneumoniae [19]): 0.6
fractional inhibitory concentration index (FICI) (Staphylococcus aureus [20]): 0.512
MIC [21]: 4 µg/mL
MIC (Candida albicans [22]): 4 µg/mL
MIC [23]: 4 µg/mL
LC50 at 96 h [24]: 6 µg/mL (≈ 16.5 µM)
MIC (Klebsiella pneumoniae [25]): 32 µg/mL
MIC70 (Pseudomonas aeruginosa [2]): 128 µg/mL
inhibition at 128 µg/mL (Pseudomonas aeruginosa [26]): 70%
mortality at 96 h, 4 microg/ml [27]: 5%
MIC (Staphylococcus aureus [28]): 0.125 µg/mL
LC50 at 24 h [29]: 8.1 µg/mL (≈ 22.3 µM)
MIC (Staphylococcus aureus [30]): 4 µg/mL
mortality at 24 h, 8 microg/ml [31]: 15%
MIC (Klebsiella pneumoniae [32]): 16 µg/mL
MIC (Klebsiella pneumoniae [4]; read-out: MIC): 32 µg/mL
mortality at 4 microg/ml [33]: 0%
MIC75 (Pseudomonas aeruginosa [3]): 128 µg/mL
mortality at 16 microg/ml [34]: 100%
MIC (Candida albicans [35]): 16 µg/mL (≈ 44 µM)
mortality at 24 h, 32 microg/ml [36]: 95%
LC50 at 24 h [37]: 14 µg/mL (≈ 38.5 µM)
fractional inhibitory concentration index (FICI) (Candida albicans [38]): 0.254
mortality at 96 h, 2 microg/ml [39]: 0%
mortality at 96 h, 0.7 microg/ml [40]: 0%
MIC (Staphylococcus aureus [41]): 4 µg/mL

Source: ChEMBL document CHEMBL5537143, “Synthesis and antimicrobial properties of guanidine-functionalized labdane type diterpenoids” (Eur J Med Chem, 2024)
